Data set [1] is classed as in vitro ADME, pork. The protocol: A study comprising applying conjugated FITC-Dextran with 4000 Daltons molecular weight as a surrogate of water-soluble drugs on ex vivo pork skin samples was performed. Thermoelectric coolers and other cooling devices can be used as well. In these experiments […] was used as the cryogenic agent. Exposure time can range from minutes to millisecond exposures, depending on the type of coolant used. […] For applying suction, any method of creating suction or positive pressure on the skin can be used. For example, the Isolaze device from […] can be used to apply a suction of 380 mm Hg. To investigate this, a study was initiated consisting of applying conjugated FITC-Dextran with 4000 Daltons molecular weight as a surrogate of water-soluble drugs on ex vivo pork skin samples. After exposing skin samples for 30 min to 3 hours after topical application, a cross-sections of skin was cut ( 20 microns thick) to observe directly the Dextran penetration via the intensity of the FITC fluorescence with the aid of a confocal fluorescent microscope.

Data set [2] in a line: Case clinical study: penetration after topical application with cryo-cracking versus simple rubbing. In kind it is in vivo. As to conditions: 3 hrs after topical application using cryo-cracking procedure. The text has this:
This study also included FITC with Dextran of 4 kDa and 70 kDA.

These results are taken from patent US20110178456A1, “ASSISTING TRANSDERMAL DRUG DELIVERY BY MEANS OF TISSUE FREEZING, VACUUM PRESSURE AND PHOTOHEATING PROCEDURES” (THE REGENTS OF THE UNIVERSITY OF CALIFORNIA, priority 2009, published 2011).

As for Dylight, in data set [1], the “transdermal delivery of drug surrogate using the cryo-cracking process” value was “delivered”.

For the compound `O=C1OC2(c3ccc(O)cc3Oc3cc(O)ccc32)c2ccc(N=C=S)cc21` [FITC], in data set [2], the “penetration into the stratum corneum and epidermis down the microcracks, compared to penetration after simple rubbing” value is “much more significant”. In addition, the “transdermal delivery of drug surrogate using the cryo-cracking process” value in data set [1] was “effectively delivered”.
